Reference: patent US9534221B2, “Targeting the steroidogenic pathway for treating and/or preventing allergic diseases” (National Jewish Health, priority 2013, dated 2017)

Tests used:
[1] = test system: CD8+ T cells; assay: Flow cytometric intracellular staining of IFN-γ and IL-13 in CD8+ T cells; type: cell-based, mouse; conditions: no SIINFEKL
[2] = target: T1, Cyp11a1 (Mus musculus, UniProt Q9QZ82); assay: Pregnenolone ELISA in supernatants of differentiated CD8+ T cells (Cyp11a1 enzymatic activity); type: cell-based; conditions: CD8+ T cells differentiated in IL-2+IL-4, AMG 500 μM; without AMG 424.8±35.5 pg/ml
T1 construct: mononuclear cells (MNCs) were processed from the spleens of OT-1 mice; endogenous in cells
T1 sequence (Q9QZ82 37-526): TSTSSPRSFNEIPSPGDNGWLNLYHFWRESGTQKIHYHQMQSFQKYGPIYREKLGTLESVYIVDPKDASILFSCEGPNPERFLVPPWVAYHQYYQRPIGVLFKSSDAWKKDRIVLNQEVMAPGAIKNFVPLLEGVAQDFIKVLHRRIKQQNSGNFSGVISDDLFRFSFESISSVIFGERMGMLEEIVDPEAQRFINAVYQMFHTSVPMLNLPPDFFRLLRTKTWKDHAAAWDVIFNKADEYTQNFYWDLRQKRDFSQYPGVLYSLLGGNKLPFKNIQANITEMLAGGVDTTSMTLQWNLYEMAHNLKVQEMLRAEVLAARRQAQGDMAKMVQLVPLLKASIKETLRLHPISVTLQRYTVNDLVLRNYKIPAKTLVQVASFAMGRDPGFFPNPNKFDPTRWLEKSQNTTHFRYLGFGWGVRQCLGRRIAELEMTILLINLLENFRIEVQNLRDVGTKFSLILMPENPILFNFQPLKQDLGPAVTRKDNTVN
Procedure: CD8^+ effector memory T cells were generated in vitro as previously described (Miyahara, N. et al. J. Immunol. 172, 2549-2558 (2004); Miyahara, N. et al. J. Immunol. 174, 4979-4984 (2005)). In brief, mononuclear cells (MNCs) were processed from the spleens of OT-1 mice followed by stimulation of 1 μg/ml [sequence] peptide (SEQ ID NO:1) was used to stimulate cells for 1.5 hours. Two days after culture, living cells were re-isolated using histopaque and cultured in complete RPMI 1640 medium that contained recombinant mouse IL-2 (20 ng/ml) (R&D, Minneapolis, Minn.) or IL-2+IL-4 (20 ng/ml) (Peprotech, Rocky Hill, N.J.). For some experiments, AMG was added into the medium together with IL-2 or IL-2+IL-4. Medium with cytokines was changed every day for a further 4 days. The cells were then re-stimulated with 1 μg/ml [sequence] (SEQ ID NO:1) in medium containing 2 μM monensin (Calbiochem, La Jolla, Calif.) for 4 hours.
CD8^+ T cells generated in the presence of IL-2, IL-2+IL-4, IL-2+AMG, or IL-2+IL-4+AMG were cultured in 6-well plates at 5×10^6/ml for 24 hours. Supernatants were collected. Pregnenolone levels were measured using the Pregnenolone ELISA kit (ALPCO Diagnostics, Salem, N.H.).
The enzymatic activity of Cyp11a1 was assessed using an ELISA assay for detection of pregnenolone levels in cell culture supernatants (Kim, C. J. et al. J. Clin. Endocrinol. Metab. 93, 696-702 (2008)).

[3] = test system: Balb/c mice; assay: Peanut-induced intestinal allergy model (PE sensitized and challenged mice); type: in vivo, mouse
Procedure: The experimental protocol for sensitization and challenge to peanut was previously described (Wang, M., et al. J. Allergy Clin. Immunol. 126, 306-316 (2010).
AMG was dissolved in 1 M hydrogen chloride and diluted with saline for in vivo studies or diluted with RPMI medium for in vitro study. The final concentration of 1 M hydrogen chloride was less than 1% and 0.05% for in vivo and in vitro, respectively. PE sensitized and challenged mice received different doses (5, 10, 20 mg/kg) of the Cyp11a1 enzyme inhibitor (PE/PE/AMG) by means of gavage using a 22-gauge feeding needle (Fisher Scientific) twice a day during the peanut challenge phase. Controls included PE sensitized and challenged but vehicle (saline) treated (PE/PE/vehicle), or sham sensitized but PE challenged and vehicle-treated (PBS/PE/vehicle) mice.
Anaphylactic symptoms were evaluated 30 minutes after the oral challenge, as previously reported (Li, X. M., et al. J. Allergy Clin. Immunol. 106:150-158 (2000)). Briefly, 0: no symptoms; 1: scratching and rubbing around the nose and head; 2: puffiness around the eyes and mouth, diarrhea, pilar erecti, reduced activity, and/or decreased activity with increased respiratory rate; 3: wheezing, labored respiration, and cyanosis around the mouth and the tail; 4: no activity after prodding or tremor and convulsion; and 5: death. Scoring of symptoms was performed in a blinded manner by an independent observer.
The jejunum was processed and stained with periodic acid-Schiff (PAS) and chloroacetate esterase for detection of mucosal mucus-containing cells and mast cells respectively, as previously described (Wang, M., et al. J. Allergy Clin. Immunol. 126, 306-316 (2010); Tomkinson, A., et al. Am. J. Respir. Crit. Care Med. 163, 721-730 (2001)). Numbers of mucosal cells expressing Cyp11a1 were identified by immunohistochemical (IHC) staining using anti-human Cyp11a1 antibody (Abcam, Cambridge, Mass.).
Serum peanut-specific IgE, IgG1, and IgG2a levels were measured by ELISA, as described previously (Payne, A. H. Biol. Reprod. 42, 399-404 (1990)).
Levels of histamine in plasma were measured using an enzyme immunoassay histamine kit (Beckman Coulter, Fullerton, Calif.), as described by the manufacturer. The concentration of histamine was calculated from a standard curve provided by the manufacturer.
RNA was extracted from jejunal tissue homogenates or from CD4 T cells cultured in vitro using Trizol (Invitrogen). cDNA was generated using the iScript cDNA synthesis kit (Bio-Rad Laboratories, Hercules, Calif.). Quantitative real-time PCR was performed on the ABI Prism 7300 sequence detection system (Applied Biosystems, Foster City, Calif.). All primers and probes used were purchased as Tagman Gene Expression Assays from Applied Biosystems. Fold change was calculated using the Delta Delta cycle threshold (ΔΔCT) method.

[4] = test system: Cyp11a1; assay: Immunoblot analysis of Cyp11a1 protein in CD8+ T cells; type: cell-based, mouse; conditions: IL-2+IL-4, 500 μM AMG, with or without SIINFEKL re-stimulation
Procedure: In brief, mononuclear cells (MNCs) were processed from the spleens of OT-1 mice followed by stimulation of 1 μg/ml [sequence] peptide (SEQ ID NO:1) was used to stimulate cells for 1.5 hours. Two days after culture, living cells were re-isolated using histopaque and cultured in complete RPMI 1640 medium that contained recombinant mouse IL-2 (20 ng/ml) (R&D, Minneapolis, Minn.) or IL-2+IL-4 (20 ng/ml) (Peprotech, Rocky Hill, N.J.). For some experiments, AMG was added into the medium together with IL-2 or IL-2+IL-4. Medium with cytokines was changed every day for a further 4 days. The cells were then re-stimulated with 1 μg/ml [sequence] (SEQ ID NO:1) in medium containing 2 μM monensin (Calbiochem, La Jolla, Calif.) for 4 hours.
CD8^+ T cells (5×10^6) were lysed with RIPA buffer containing Hale™ protease and phosphatase inhibitor cocktail (Thermo Scientific, Rockford, Ill.) on ice for 30 minutes. Samples were run by sodium dodecyl sulfate polyacrylamide gel electrophoresis (SDS-PAGE) and transferred to nitrocellulose membranes. […] Immunoreactive bands of Western blottings were quantified by densitometric quantification of autoradiographs using Image J (NIMH, Bethesda, Md.), and expressed as relative Cyp11a1 normalized by β-actin.

`CCC1(c2ccc(N)cc2)CCC(=O)NC1=O` (centres unmarked) [AMG, aminoglutethimide] was tested, and the “IFN-γ single positive cells” value ([1]; IL-2+AMG (500 μM)) was 0.2 +/− 0.1%, the “IFN-γ+IL13+ double positive cells” value ([1]; IL-2+AMG (500 μM)) was 0% and the “IL-13 single positive cells” value ([1]; IL-2+AMG (500 μM)) was 0.4 +/− 0.2%. For the same compound, the “IFN-γ+IL13+ double positive cells” value ([1]; IL-2+IL-4+AMG (500 μM)) was 0.1%, the “Pregnenolone levels in cell supernatants” value [2] was 96.4 ± 35 pg/mL and the Clinical symptoms ([3]; 5 mg/kg) was “no observed inhibitory effects”. The Diarrhea occurrence ([3]; 5 mg/kg) was “no observed inhibitory effects”, the Diarrhea ([3]; 10 mg/kg) was “partially inhibited” and the Symptom scores ([3]; 10 mg/kg) was “partially inhibited”. The “Numbers of mast cells in the mucosa of the small intestine” value ([3]; 20 mg/kg) was “markedly reduced”, the “Numbers of mucus-producing goblet cells in the mucosa of the small intestine” value ([3]; 20 mg/kg) was “markedly reduced” and the Clinical symptom scores ([3]; 20 mg/kg, 30 minutes after oral challenge) was “significantly diminished”. For the same compound, the Development of diarrhea ([3]; 20 mg/kg, gavage twice a day during challenge phase) was “fully prevented”, the “Cyp11a1 mRNA in the small intestine” value ([3]; AMG 20 mg/kg) was “did not affect” and the “GATA3 mRNA expression in the small intestine” value ([3]; AMG 20 mg/kg) was “not affected”. For the same compound, the “IL4 mRNA expression in the small intestine” value ([3]; AMG 20 mg/kg) was “reduced to baseline levels”, the “IL13 mRNA expression in the small intestine” value ([3]; AMG 20 mg/kg) was “reduced to baseline levels” and the “IL17A mRNA expression in the small intestine” value ([3]; AMG 20 mg/kg) was “reduced to baseline levels”. For the same compound, the “Numbers of Cyp11a1-positive cells in the small intestine” value ([3]; AMG 20 mg/kg) was “did not affect”, the “RORγt mRNA expression in the small intestine” value ([3]; AMG 20 mg/kg) was “not affected” and the “T-bet mRNA expression in the small intestine” value ([3]; AMG 20 mg/kg) was “not affected”. The Plasma histamine levels ([3]; AMG 20 mg/kg, within 30 minutes of the last challenge) was “significantly lower”, the “Serum peanut-specific IgE” value ([3]; AMG given after sensitization) was “unaffected” and the “Serum peanut-specific IgG1” value ([3]; AMG given after sensitization) was “unaffected”. The “Serum peanut-specific IgG2a” value ([3]; AMG given after sensitization) was “unaffected” and the “Cyp11a1 protein levels (immunoblot)” value [4] was “did not prevent IL-4-induced increases in Cyp11a1 protein levels”.
